Patent publication US20170165317A1, “METHOD FOR MITIGATING OR ALLEVIATING SYNAPTIC AND COGNITIVE DEFICITS” (Trustees of Dartmouth College, priority 2013, published 2017)

What was measured:
[1] = test system: APP/PS1 mice; experiment: Auditory-cued fear conditioning (hippocampal-independent) after i.c.v. infusion; assay type: in vivo, mouse; conditions: wild-type vs APP/PS1 mice, with or without VO-OHpic
Description: APP/PS1 and wild-type mice were anesthetized with isofluorane, and i.c.v. delivery cannulas (brain alzet kit III) were implanted with a stereotaxic frame (KOPF Instruments) at the following coordinates according to the bregma: AP, −0.5 mm; ML, 1 mm; and DV, −2.2 mm. Osmotic minipumps (Alzet) were filled with artificial cerebrospinal fluid (aCSF) with or without PTEN inhibitor VO-OHpic (2.5 μM) and equilibrated in 0.9% NaCl at 37° C. for 48 hours. They were attached to the i.c.v. cannula tubing and subcutaneously implanted at the back. After 21 days, behavioral testing was started as described herein. […]
Fear conditioning. […] The animals' behavior was scored by an observer blind to the treatment condition. Using a time-sampling procedure every 2 seconds, each mouse was scored blindly as either freezing or active at the instant the sample was taken. […]
It was posited that if early Aβ-induced cognitive impairment results from a general synaptic bias toward LTD events (Selkoe (2002) Science 298:789-791), dampening this form of synaptic plasticity might prevent cognitive decay. Therefore, it was determined whether in vivo inhibition of PTEN, a lipid phosphatase that is involved in LTD (Jurado, et al. (2010) EMBO J. 29:2827-2840), would rescue cognitive deficits in APP/PS1 mice. […]

[2] = biological target: T1, Aβ42 (Homo sapiens, UniProt P05067); experiment: Thioflavin-T fluorescence assay of Aβ42 aggregation; assay type: biochemical; conditions: 50 nM VO-OHpic or 15 nM bPV(HOpic), 37° C.
T1 construct: Lyophilized Aβ42 peptide was purchased from Keck Facility at Yale University; purchased Keck Facility at Yale University; host or cells: synthetic peptide
T1 sequence (P05067 672-713): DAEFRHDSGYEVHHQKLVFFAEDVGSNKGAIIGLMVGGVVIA
Description: Freshly prepared Aβ42 was prepared as described for protofibrillar Aβ42. The Thioflavin-T (ThT) assay was carried out at 37° C., within a dark chamber in a 96-well plate. Each well contained 100 ng/μL of Aβ42, 20 μM ThT and 50 nM VO-OHpic or 15 nM bPV(HOpic). Fluorescence (λex=450 nm; λem=485 nm) was followed over time in a FLUOSTAR OPTIMA (BMG LabTech) fluorescence spectrophotometer. Samples were run in triplicates. […] Thus, the observed rescue of basal synaptic transmission, LTP and cognition, with VO-OHpic was not likely due to an altered aggregation state of Aβ upon PTEN inhibition.

Structure (SMILES): O=C(O)c1ncccc1O.O=C(O)c1ncccc1O.[O]=[V][O-] [VO-OHpic]
- auditory-cued fear conditioning (percentage freezing to the tone) [1]: did not show significant difference
- Aβ42 aggregation (ThT fluorescence) [2]: does not alter Aβ42 aggregation
